Source: ChEMBL document CHEMBL1944581, “Synthesis and characterization of fluorinated homocysteine derivatives as potential molecular probes for ¹⁹F magnetic resonance spectroscopy and imaging” (Bioorg Med Chem Lett, 2011)

Key:
Format in all cases: ADME
Albumin [1] = biological target: T1, Albumin (Homo sapiens, UniProt P02768); assay: Binding affinity to human serum albumin in human plasma assessed as protein N-homocysteinylation level at 37 degC for 27 hrs by SDS-PAGE-based 19F-NMR spectroscopy
T1 sequence (P02768 whole entry): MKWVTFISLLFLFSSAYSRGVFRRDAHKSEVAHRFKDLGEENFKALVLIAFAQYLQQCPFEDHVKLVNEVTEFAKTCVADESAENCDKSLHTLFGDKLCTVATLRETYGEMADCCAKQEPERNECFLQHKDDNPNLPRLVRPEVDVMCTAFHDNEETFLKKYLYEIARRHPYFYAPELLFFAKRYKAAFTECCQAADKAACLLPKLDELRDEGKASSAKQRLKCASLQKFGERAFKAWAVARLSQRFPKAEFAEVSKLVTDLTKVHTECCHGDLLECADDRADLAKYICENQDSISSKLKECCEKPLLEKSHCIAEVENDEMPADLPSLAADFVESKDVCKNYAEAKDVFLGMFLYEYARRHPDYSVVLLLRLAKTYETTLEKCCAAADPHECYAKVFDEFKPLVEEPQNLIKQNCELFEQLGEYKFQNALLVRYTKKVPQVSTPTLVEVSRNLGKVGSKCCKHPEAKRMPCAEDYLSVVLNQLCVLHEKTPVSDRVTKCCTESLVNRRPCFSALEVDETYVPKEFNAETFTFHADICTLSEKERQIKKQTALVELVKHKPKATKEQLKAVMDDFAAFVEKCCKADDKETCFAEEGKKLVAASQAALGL

Albumin [2] = biological target: T1, Albumin; assay: Binding affinity to human serum albumin in phosphate buffer assessed as N-homocysteinylation of protein at 6.2 mM at pH 7.43 at 37 degC after 18 hrs by SDS-PAGE-based 19F-NMR spectroscopy; conditions: isolated protein, pH 7.43, 18 h, 6200 µM
Albumin [3] = biological target: T1, Albumin; assay: Binding affinity to human serum albumin in phosphate buffer assessed as N-homocysteinylation of protein by MALDI-TOF scpectroscopy; conditions: isolated protein

Measured: Activity

O=C1SCCC1NC(=O)C(F)(F)F (stereo not drawn)
Active: all assays above
